Tests used:
[1] = test system: PBMCs from asymptomatic HLA-A*02:01 Chagas disease patients; assay: HLA-A*02:01 restriction assay: peptide-pulsed K562-A2 cells as APC, IFN-γ secretion by patient PBMC; type: cell-based, human; conditions: K562-A2 cells pulsed with 1 mM peptide 1 h, co-cultured 30 h with PBMC of asymptomatic (IND) patients; positive = IFN-γ at least two folds un-stimulated cells
HLA-A*02:01 = HLA-A*02:01 (Homo sapiens, UniProt P04439, D140Y/D185E/D98H/E176V/E277Q/G131W/G231S/I119V/I121R/I166T/I218V/L300P/L318F/N151K/N90K/P208A/P217A/Q86G/Q94H/R138H/R169H/T345S); assay: HLA-A*02:01 binding assay (surface stabilization on TAP-deficient T2 cells); conditions: different peptide concentrations in duplicate, serum-free RPMI, overnight at room temperature, PE anti-HLA-A2 (BB7.2) flow cytometry, referred to 25 μM HB-ENV335-343 peptide
Description: TAP-deficient T2 cells were used for the HLA-A*02:01 binding assays and the K562-A2 cells for the HLA-A*02:01 restriction assay. The cells were cultured in complete RPMI medium supplemented with 10% of inactivated Fetal Calf Serum (iFCS), 2 mM glutamine, and 100 U/ml penicillin. K562-A2 cells, expressing the HLA-A*02:01 molecule were cultured in the presence of […] of G-418, as previously described. The T2 and K562-A2 cells were kindly provided by Dr. Pedro Romero (University of Lausanne) and by Dr Peter Ponsaerts (University of Antwerp, with the permission of Dr. Cedrik Britten from Johanes Gutenberg-University Mainz), respectively.
HLA-A*02:01 surface stabilization test was carried out as described in [42]. Briefly, TAP-deficient T2 cells were loaded with different concentrations of each peptide, in duplicate in serum-free RPMI medium, and incubated overnight at room temperature. Afterwards, the cells were stained with a PE-labeled HLA-A2-specific antibody (BB7.2 clone, BD biosciences) and analyzed by flow cytometry. The high-affinity HLA-A*02:01-binding peptide […] ([…]) was included as internal standard. Affinity data were calculated as the percentage of maximum complex stabilization, as described in [44]. The following equation was used: % of maximal stabilization = 100 x [(mean fluorescence with peptide)–(background mean fluorescence)]/[(mean fluorescence with 25 μM HBENV335-343 peptide)–(background mean fluorescence)]. Background value was obtained with cells incubated in the same conditions without peptide.
The percentage of maximal binding stabilization of these eight TcCA-2 peptides was evaluated using TAP-deficient T2 cells and different concentrations of each peptide. […] The maximal binding affinity is shown for each peptide in Table 1.

Row | Sequence | Chagas disease patient: patients with positive response in relation with the total number of patients per assay [1] | % maximal stabilization (HLA-A*02:01)
1 | FANAPGVAQV [TcCA-2_452-461] | 0/10 | 46.23%
2 | AIGGGKLPAL [TcCA-2_531-540] | 0/9 | 20.89%
3 | SAFGNHASTV [TcCA-2_550-559] | 0/9 | 19.07%
4 | SILQNVHATL [TcCA-2_489-498] | 0/8 | 36.02%
